In patent US9770026B2, “Substituted pyrimidine compound and uses thereof” (Shenyang Sinochem Agrochemicals R&D Co., Ltd., priority 2012, dated 2017):

What was measured:
[1] = test system: Green peach aphids (Myzus Persicae Sulzer); assay: bioactivity test against green peach aphid, airbrush foliar spray; format: in vivo; details: for Insecticidal activity against peach aphid (%): contrastive test; for control (test results against green peach aphid): death rate after 48 hrs
Experimental: (§1) Compounds were dissolved in mixed solvent (acetone:methanol=1:1), and diluted to required concentration with water containing 0.1% of tween 80.
(§2) Diamond back moth, armyworm, peach aphid and carmine spider mite were used as targets and the method of spraying by airbrush was used for determination of insecticidal biassays.
Method: Filter papers were put in culture dishes (Diameter=6 cm), and water was dripped on filter papers for preserving moisture. Green peach aphids (Myzus Persicae Sulzer) were maintained on cabbage. Leaves (Diameter=3 cm) of approximately 15-30 aphids were put in the culture dishes. Bioactivity tests were used the method of Airbrush Foliar Spray, pressure=10 psi (0.7 kg/cm2), spray volume=0.5 mL. The studies were conducted at […] 25±1 C in incubator cabinets with 60±5% RH. Survey the survival aphids after 48 hrs and calculate the death rates.

[2] = test system: corn rust; assay: protectant activity in vivo against corn rust; details: for control effect against corn rust (%): protectant activity
[3] = test system: carmine spider mite; assay: bioactivity test against carmine spider mite, airbrush spray; format: in vivo; details: for Insecticidal activity against carmine spider mite (% ): contrastive test; for control against carmine spider mite: mortality after 72 hrs
Experimental: as §1, §2
The method: Broadbean shoots with two true leaves in pot were taken, the healthy adults of carmine spider mite were inoculated to the leaves. The adults were counted and then sprayed with airbrush at the pressure of 0.7 kg/cm^2 and at dose of 0.5 ml. 3 replicates were set for each treatment. And then they were maintained in standard observation room. Scores were conducted and mortalities were calculated after 72 hrs.

[4] = test system: wheat powdery mildew; assay: protectant activity in vivo against wheat powdery mildew; details: for control effect against wheat powdery mildew (%): protectant activity
[5] = test system: cucumber downy mildew; assay: protectant activity in vivo against cucumber downy mildew; details: for control effect against cucumber downy mildew (%): protectant activity

With CC(F)c1ncnc(NCCc2ccc(Oc3ncc(C(F)(F)F)cc3Cl)cc2)c1Cl (centres unmarked) [CK2, reference compound] the “Insecticidal activity against peach aphid (%)” value (“Insecticidal activity … (%)” below) ([1]; 1.25 mg/L) was 0%, the “Insecticidal activity … (%)” value ([1]; 2.5 mg/L) was 23% and the “Insecticidal activity … (%)” value ([1]; 5 mg/L) was 37%. For the same compound, the “Insecticidal activity … (%)” value ([1]; 10 mg/L) was 95%, the “Insecticidal activity … (%)” value ([1]; 100 mg/L) was 100% and the “Insecticidal activity … (%)” value ([1]; 600 mg/L) was 100%. For the same compound, the “control effect against corn rust (%)” value ([2]; 6.25 mg/L) was 85%, the “control effect against corn rust (%)” value ([2]; 25 mg/L) was 100% and the “control effect against corn rust (%)” value ([2]; 100 mg/L) was 100%. The “control effect against corn rust (%)” value ([2]; 400 mg/L) was 100%, the “Insecticidal activity against carmine spider mite (% )” value (“Insecticidal activity … (% )” for short) ([3]; 10 mg/L) was 32% and the “Insecticidal activity … (% )” value ([3]; 100 mg/L) was 100%. For the same compound, the “Insecticidal activity … (% )” value ([3]; 600 mg/L) was 100%, the “control effect against wheat powdery mildew (%)” value ([4]; 6.25 mg/L) was 0% and the “control effect against wheat powdery mildew (%)” value ([4]; 25 mg/L) was 80%. For the same compound, the “control effect against wheat powdery mildew (%)” value ([4]; 100 mg/L) was 100% and the “control effect against wheat powdery mildew (%)” value ([4]; 400 mg/L) was 100%.

In the case of CCOC(=O)c1ccc(Oc2ccc(CCNc3ncnc(CC)c3Cl)cc2)nc1 [Compound I-267], the “control (test results against green peach aphid)” value ([1]; 10 ppm) is reported as 100%, the “control (test results against green peach aphid)” value ([1]; 100 ppm) is reported as 100% and the “control (test results against green peach aphid)” value ([1]; 600 ppm) is reported as 100%. The “protectant activity against corn rust in vivo” value ([2]; 400 ppm) was 100%, the “control against carmine spider mite” value ([3]; 600 ppm) was 100% and the “protectant activity against wheat powdery mildew in vivo” value ([4]; 100 ppm) was 100%. For the same compound, the “protectant activity against wheat powdery mildew in vivo” value ([4]; 400 ppm) was 100%.

With CCc1ncnc(NCCc2ccc(Oc3ncc(C(F)(F)F)cc3Cl)cc2)c1Cl [Compound I-602] the “protectant activity against cucumber downy mildew in vivo” value ([5]; 100 ppm) was 100%, the “protectant activity against cucumber downy mildew in vivo” value ([5]; 400 ppm) was 100% and the “control (test results against green peach aphid)” value ([1]; 100 ppm) was 100%. The “control (test results against green peach aphid)” value ([1]; 600 ppm) was 100%, the “control against carmine spider mite” value ([3]; 600 ppm) was 100% and the “protectant activity against wheat powdery mildew in vivo” value ([4]; 100 ppm) was 100%. For the same compound, the “protectant activity against wheat powdery mildew in vivo” value ([4]; 400 ppm) was 100%.

In the case of Cc1ncnc(NCCc2ccc(Oc3ncccc3C(F)(F)F)cc2)c1Cl [Compound I-929], the “control (test results against green peach aphid)” value ([1]; 600 ppm) is reported as 100%, the “protectant activity against corn rust in vivo” value ([2]; 400 ppm) is reported as 100% and the “control against carmine spider mite” value ([3]; 600 ppm) is reported as 100%. For the same compound, the “protectant activity against wheat powdery mildew in vivo” value ([4]; 400 ppm) was 100%.

With CCc1ncnc(NCCc2ccc(Oc3ncccc3C(F)(F)F)cc2)c1Cl [Compound I-987] the “protectant activity against cucumber downy mildew in vivo” value ([5]; 100 ppm) was 100%, the “protectant activity against cucumber downy mildew in vivo” value ([5]; 400 ppm) was 100% and the “control (test results against green peach aphid)” value ([1]; 10 ppm) was 100%. For the same compound, the “control (test results against green peach aphid)” value ([1]; 100 ppm) was 100%, the “control (test results against green peach aphid)” value ([1]; 600 ppm) was 100% and the “protectant activity against corn rust in vivo” value ([2]; 100 ppm) was 100%. For the same compound, the “protectant activity against corn rust in vivo” value ([2]; 400 ppm) was 100%, the “Insecticidal activity … (% )” value ([3]; 10 mg/L) was 80% and the “Insecticidal activity … (% )” value ([3]; 100 mg/L) was 100%. For the same compound, the “Insecticidal activity … (% )” value ([3]; 600 mg/L) was 100%, the “control against carmine spider mite” value ([3]; 100 ppm) was 100% and the “control against carmine spider mite” value ([3]; 600 ppm) was 100%. For the same compound, the “protectant activity against wheat powdery mildew in vivo” value ([4]; 100 ppm) was 100% and the “protectant activity against wheat powdery mildew in vivo” value ([4]; 400 ppm) was 100%.

For Cc1ncnc(NCCc2ccc(Oc3ccc(C(F)(F)F)cn3)cc2)c1Br [Compound I-1762], the “protectant activity against cucumber downy mildew in vivo” value ([5]; 400 ppm) was 100%, the “control (test results against green peach aphid)” value ([1]; 5 ppm) was 100% and the “control (test results against green peach aphid)” value ([1]; 10 ppm) was 100%. For the same compound, the “control (test results against green peach aphid)” value ([1]; 100 ppm) was 100%, the “control (test results against green peach aphid)” value ([1]; 600 ppm) was 100% and the “protectant activity against corn rust in vivo” value ([2]; 400 ppm) was 100%. The “control against carmine spider mite” value ([3]; 100 ppm) was 100%, the “control against carmine spider mite” value ([3]; 600 ppm) was 100% and the “protectant activity against wheat powdery mildew in vivo” value ([4]; 400 ppm) was 100%.

Cc1ncnc(NCCc2ccc(Oc3ccc(C(F)(F)F)cn3)cc2)c1Cl.Cl [Compound I-6730] was tested, and the “protectant activity against cucumber downy mildew in vivo” value ([5]; 25 ppm) was 100%, the “protectant activity against cucumber downy mildew in vivo” value ([5]; 50 ppm) was 100% and the “protectant activity against cucumber downy mildew in vivo” value ([5]; 400 ppm) was 100%. For the same compound, the pest or weed control at 100 ppm ([5]; Cucumis sativus, 168 h, read-out: protectant activity against cucumber downy mildew in vivo, 100 ppm) was 100%, the “control (test results against green peach aphid)” value ([1]; 600 ppm) was 100% and the “protectant activity against corn rust in vivo” value ([2]; 400 ppm) was 100%. For the same compound, the “control against carmine spider mite” value ([3]; 600 ppm) was 100%, the “protectant activity against wheat powdery mildew in vivo” value ([4]; 25 ppm) was 100% and the “protectant activity against wheat powdery mildew in vivo” value ([4]; 100 ppm) was 100%. The “protectant activity against wheat powdery mildew in vivo” value ([4]; 400 ppm) was 100% and the pest or weed control at 6.25 ppm ([4]; Triticum aestivum, 168 h, read-out: protectant activity against wheat powdery mildew in vivo, 6.25 ppm) was 80 to 99%.

For Cc1ncnc(NCCc2ccc(Oc3ccccc3Cl)nc2)c1Cl [III-5], the “control effect against cucumber downy mildew (%)” value ([5]; 25 mg/L) was 100%, the “control effect against cucumber downy mildew (%)” value ([5]; 50 mg/L) was 100% and the “control effect against cucumber downy mildew (%)” value ([5]; 100 mg/L) was 100%. The “control effect against cucumber downy mildew (%)” value ([5]; 400 mg/L) was 100%, the “protectant activity against cucumber downy mildew in vivo” value ([5]; 25 ppm) was 100% and the “protectant activity against cucumber downy mildew in vivo” value ([5]; 50 ppm) was 100%. The “protectant activity against cucumber downy mildew in vivo” value ([5]; 100 ppm) was 100%, the “protectant activity against cucumber downy mildew in vivo” value ([5]; 400 ppm) was 100% and the “control (test results against green peach aphid)” value ([1]; 600 ppm) was 100%. The “control against carmine spider mite” value ([3]; 600 ppm) was 100% and the “protectant activity against wheat powdery mildew in vivo” value ([4]; 400 ppm) was 100%.

In the case of CCc1ncnc(NCCc2ccc(Oc3ccc(Cl)cc3Cl)nc2)c1Cl [III-262], the “control effect against cucumber downy mildew (%)” value ([5]; 25 mg/L) is reported as 100%, the “control effect against cucumber downy mildew (%)” value ([5]; 50 mg/L) is reported as 100% and the “control effect against cucumber downy mildew (%)” value ([5]; 100 mg/L) is reported as 100%. The “control effect against cucumber downy mildew (%)” value ([5]; 400 mg/L) was 100%, the “protectant activity against cucumber downy mildew in vivo” value ([5]; 25 ppm) was 100% and the “protectant activity against cucumber downy mildew in vivo” value ([5]; 50 ppm) was 100%. The “protectant activity against cucumber downy mildew in vivo” value ([5]; 100 ppm) was 100%, the “protectant activity against cucumber downy mildew in vivo” value ([5]; 400 ppm) was 100% and the “control (test results against green peach aphid)” value ([1]; 100 ppm) was 100%. The “control (test results against green peach aphid)” value ([1]; 600 ppm) was 100%, the “control effect against corn rust (%)” value ([2]; 0.4 mg/L) was 60% and the “control effect against corn rust (%)” value ([2]; 1.6 mg/L) was 90%. For the same compound, the “control effect against corn rust (%)” value ([2]; 6.25 mg/L) was 90%, the “control effect against corn rust (%)” value ([2]; 25 mg/L) was 100% and the “control effect against corn rust (%)” value ([2]; 100 mg/L) was 100%. For the same compound, the “control effect against corn rust (%)” value ([2]; 400 mg/L) was 100%, the “protectant activity against corn rust in vivo” value ([2]; 25 ppm) was 100% and the “protectant activity against corn rust in vivo” value ([2]; 100 ppm) was 100%. For the same compound, the “protectant activity against corn rust in vivo” value ([2]; 400 ppm) was 100% and the “protectant activity against wheat powdery mildew in vivo” value ([4]; 400 ppm) was 100%.

For CCc1ncnc(NCCc2ccc(Oc3ccc(C(F)(F)F)cc3Cl)nc2)c1Cl [III-301], the “control effect against cucumber downy mildew (%)” value ([5]; 6.25 mg/L) was 100%, the “control effect against cucumber downy mildew (%)” value ([5]; 12.5 mg/L) was 100% and the “control effect against cucumber downy mildew (%)” value ([5]; 25 mg/L) was 100%. For the same compound, the “control effect against cucumber downy mildew (%)” value ([5]; 50 mg/L) was 100%, the “control effect against cucumber downy mildew (%)” value ([5]; 100 mg/L) was 100% and the “control effect against cucumber downy mildew (%)” value ([5]; 400 mg/L) was 100%. The “protectant activity against cucumber downy mildew in vivo” value ([5]; 6.25 ppm) was 100%, the “protectant activity against cucumber downy mildew in vivo” value ([5]; 12.5 ppm) was 100% and the “protectant activity against cucumber downy mildew in vivo” value ([5]; 25 ppm) was 100%. The “protectant activity against cucumber downy mildew in vivo” value ([5]; 50 ppm) was 100%, the “protectant activity against cucumber downy mildew in vivo” value ([5]; 100 ppm) was 100% and the “protectant activity against cucumber downy mildew in vivo” value ([5]; 400 ppm) was 100%. The “Insecticidal activity … (%)” value ([1]; 10 mg/L) was 100%, the “Insecticidal activity … (%)” value ([1]; 100 mg/L) was 100% and the “Insecticidal activity … (%)” value ([1]; 600 mg/L) was 100%. For the same compound, the “control (test results against green peach aphid)” value ([1]; 10 ppm) was 100%, the “control (test results against green peach aphid)” value ([1]; 100 ppm) was 100% and the “control (test results against green peach aphid)” value ([1]; 600 ppm) was 100%. The “protectant activity against corn rust in vivo” value ([2]; 100 ppm) was 100%, the “protectant activity against corn rust in vivo” value ([2]; 400 ppm) was 100% and the “protectant activity against wheat powdery mildew in vivo” value ([4]; 100 ppm) was 100%. For the same compound, the “protectant activity against wheat powdery mildew in vivo” value ([4]; 400 ppm) was 100%.

With COc1ccc(Oc2ccc(CCNc3nc(C)nc(Cl)c3Cl)cn2)cc1 [III-2539] the “control effect against cucumber downy mildew (%)” value ([5]; 12.5 mg/L) was 85%, the “control effect against cucumber downy mildew (%)” value ([5]; 25 mg/L) was 100% and the “control effect against cucumber downy mildew (%)” value ([5]; 50 mg/L) was 100%. For the same compound, the “control effect against cucumber downy mildew (%)” value ([5]; 100 mg/L) was 100%, the “control effect against cucumber downy mildew (%)” value ([5]; 400 mg/L) was 100% and the “protectant activity against cucumber downy mildew in vivo” value ([5]; 25 ppm) was 100%. The “protectant activity against cucumber downy mildew in vivo” value ([5]; 50 ppm) was 100%, the “protectant activity against cucumber downy mildew in vivo” value ([5]; 100 ppm) was 100% and the “protectant activity against cucumber downy mildew in vivo” value ([5]; 400 ppm) was 100%. The “control (test results against green peach aphid)” value ([1]; 600 ppm) was 100%, the “protectant activity against corn rust in vivo” value ([2]; 400 ppm) was 100% and the “control against carmine spider mite” value ([3]; 600 ppm) was 100%.
